Assay results: patent publication US4925855A, “Imidazole derivatives and antimycotics containing them” (CL Pharma Aktiengesellschaft, priority 1986, dated 1990)
Values after ≈ are worked out from the molar mass of the structure shown. Like-named read-outs stand apart in the source and are kept apart here.

Key:
Mucor mucedo minus = test: MIC in serial dilution test, Mucor mucedo minus; format: cell-based; conditions: 336 h, pH 6, Mucor mucedo minus, pH 6.0, 22° C., 14 days, read-out: MIC values, Mu. mu-
Method: (§1) The antimycotic activities of the compounds were measured by in vitro determination of the minimum inhibitory concentration (MIC) for yeasts, molds and dermatophytes.
(§2) 6 dermatophytes, 2 yeasts and 4 molds were used for testing with fungi, as follows:
Mucor mucedo minus (Mu.mu^-)
(§3) The minimum inhibitory concentration (MIC) was determined in serial dilution tests in test tubes. The volume of the liquid nutrient medium in each test tube was 4.5 ml.
(§4) The substances were dissolved in DMSO and diluted with sterile distilled water to 10 concentrations (100, 50, 25, 12.5, 6.25, 3.12, 1.56, 0.78, 0.39 and 0.19 μg/ml). 0.5 ml of each of these dilution steps was added to the liquid nutrient medium. Thus, a constant concentration of solvent in all the nutrient media was ensured, irrespective of the active compound concentration.
(§5) A comparison solution which contained only the solvent in appropriate concentration was included when carrying out each of the tests.
(§6) The individual strains were maintained on Sabouraud/beerwort agar slants and, before they were used in a test, they underwent a passage on a modified Sabouraud liquid nutrient medium. The strains were then harvested, washed and converted into a suspension of McFaerland 3 in the case of yeasts and molds and of McFaerland 4-5 in the case of dermatophytes.
(§7) The amount of material inoculated (inoculum) was 100 μl/test tube (inoculated densities: yeasts […] of the liquid nutrient medium was 6.0. After inoculation had taken place the fungi were incubated at 22° C. for 14 days.
(§8) The MIC was then determined. The concentration step at which growth was no longer visible on macroscopic inspection was used for the determination of the MIC. The comparison substance used was 1-(2-(2,4-dichlorophenyl)-2-(2,4-dichlorophenylmethoxy)ethyl)-1H-imidazoleas nitrate (compound A).

Aspergillus fumigatus = test: MIC in serial dilution test, Aspergillus fumigatus; format: cell-based
Method: as §1, §2
Aspergillus fumigatus (Asp.fu.)
as §3, §4, §5, §6, §7, §8

[1] = Determination of the lethal dose in rats, single oral administration; format: in vivo; conditions: for LD100: oral, administration once
Method: (§9) Determination of the lethal dose of 1-(2-(2,4-dichlorophenyl)-2-(3-(4-chlorophenylthio)propylamino)ethyl)-1H-imidazole dihydrochloride (compound No. 19) in mice and rats on administration once.
(§10) In each case, oral doses of 0, 500, 1,000 and 3,000 mg/kg of body weight were administered to four groups of female and male animals.

[2] = Determination of the lethal dose in mice, single oral administration; format: in vivo; conditions: for LD100: oral, administration once
Method: as §9, §10

[3] = Determination of the LD50 in mice by i.v. administration; format: in vivo; conditions: 12.5-100 mg/kg
Method: (§11) Determination of the LD50 of 1-(2-(2,4-di-chlorophenyl)-2-(3-(4-chlorophenylthio)propylamino)-ethyl)-1H-imidazole dihydrochloride (compound No. 19) in mice and rats by i.v. administration. In each case, 0 (0.9% NaCl solution), 12.5, 25.0, 50.0 and 100 mg/kg of body weight were injected i.v. into 5 groups of female and male animals.

[4] = tested on: Salmonella typhimurium strains TA 1535, TA 1537, TA 1538, TA 98 and TA 100; test: Potential to cause gene mutations in Salmonella typhimurium; format: cell-based; conditions: with or without metabolic activator (S 9 mix); 10-1,000 and 3.3-333.3 μg/plate
Method: Compound No. 19 was investigated for its potential to cause gene mutations in five Salmonella typhimurium strains TA 1535, TA 1537, TA 1538, TA 98 and TA 100.
The following concentrations were tested, both with metabolic activator (S 9 mix) and without metabolic activator.

[5] = Determination of the LD50 in rats by i.v. administration; format: in vivo; conditions: 12.5-100 mg/kg
Method: as §11

Microsporum gypseum = test: MIC in serial dilution test, Microsporum gypseum; format: cell-based; conditions: Nannizzia gypsea, 336 h
Method: as §1, §2
Microsporum gypseum (Mi.gyp.)
as §3, §4, §5, §6, §7, §8

Microsporum canis = test: MIC in serial dilution test, Microsporum canis; format: cell-based; conditions: 336 h, pH 6, Microsporum canis, pH 6.0, 22° C., 14 days, read-out: MIC values, Mi. can
Method: as §1, §2
Microsporum canis (Mi.can.)
as §3, §4, §5, §6, §7, §8

Trichophyton rubrum = test: MIC in serial dilution test, Trichophyton rubrum; format: cell-based; conditions: 336 h, pH 6, Trichophyton rubrum, pH 6.0, 22° C., 14 days, read-out: MIC values, Tri. ru.
Method: as §1, §2
Trichophyton rubrum (Tri.ru.)
as §3, §4, §5, §6, §7, §8

Mucor mucedo plus = test: MIC in serial dilution test, Mucor mucedo plus; format: cell-based; conditions: 336 h, pH 6, Mucor mucedo plus, pH 6.0, 22° C., 14 days, read-out: MIC values, Mu. mu+
Method: as §1, §2
Mucor mucedo plus (Mu.mu^+)
as §3, §4, §5, §6, §7, §8

[6] = tested on: Trichophyton mentagrophytes; test: MIC in serial dilution test, Trichophyton mentagrophytes; format: cell-based; conditions: 336 h, pH 6, Trichophyton mentagrophytes, pH 6.0, 22° C., 14 days, read-out: MIC values, Tri. me.
Method: as §1, §2
Trichophyton mentagrophytes
as §3, §4, §5, §6, §7, §8

Epidermophyton floccosum = test: MIC in serial dilution test, Epidermophyton floccosum; format: cell-based; conditions: 336 h, pH 6, Epidermophyton floccosum, pH 6.0, 22° C., 14 days, read-out: MIC values, Ep. flo
Method: as §1, §2
Epidermophyton floccosum
as §3, §4, §5, §6, §7, §8

Candida tropicalis = test: MIC in serial dilution test, Candida tropicalis; format: cell-based; conditions: 336 h
Method: as §1, §2
Candida tropicalis (C.trop.)
as §3, §4, §5, §6, §7, §8

Absidia ramosa = test: MIC in serial dilution test, Absidia ramosa; format: cell-based; conditions: Lichtheimia ramosa, 336 h, pH 6, Absidia ramosa; pH 6.0, 22° C., 14 days; read-out: MIC values, Abs. ra.
Method: as §1, §2
Absidia ramosa (Abs.ra.)
as §3, §4, §5, §6, §7, §8

Trichophyton verrucosum = test: MIC in serial dilution test, Trichophyton verrucosum; format: cell-based; conditions: 336 h, pH 6, Trichophyton verrucosum, pH 6.0, 22° C., 14 days, read-out: MIC values, Tri. ve.
Method: as §1, §2
Trichophyton verrucosum (Tri.ve.)
as §3, §4, §5, §6, §7, §8

Candida albicans = test: MIC in serial dilution test, Candida albicans; format: cell-based; conditions: 336 h
Method: as §1, §2
Candida albicans (C.alb.)
as §3, §4, §5, §6, §7, §8

[7] = oral, 500, 1,000 and 3,000 mg/kg
[8] = Microsporum gypseum, pH 6.0, 22° C., 14 days, read-out: MIC values, Mi. gyp
[9] = pH 6, Candida tropicalis, pH 6.0, 22° C., 14 days, read-out: MIC values, C. trop
[10] = pH 6.0, 22° C., 14 days, read-out: MIC values, C. alb

SMILES | MIC (Mucor mucedo minus) [µg/mL] | MIC values, Asp. fu. (Aspergillus fumigatus; 20160 min, pH 6) | MIC (Microsporum gypseum; [8]) [µg/mL] | MIC (Microsporum canis) [µg/mL] | MIC (Trichophyton rubrum) [µg/mL] | MIC (Mucor mucedo plus) [µg/mL] | MIC [6] [µg/mL] | MIC (Epidermophyton floccosum) [µg/mL] | MIC (Candida tropicalis; [9]) [µg/mL] | MIC (Absidia ramosa) [µg/mL] | MIC (Trichophyton verrucosum) [µg/mL] | MIC (Candida albicans; [10]) [µg/mL] | further results
Clc1ccc(C(Cn2ccnc2)NCCSc2ccc3ccccc3c2)c(Cl)c1 (stereo not shown) [compound 6] | 12.5 (≈ 28.3 µM) | – | – | – | – | – | – | – | – | – | – | – | –
Clc1ccc(SCCCCCNC(Cn2ccnc2)c2ccc(Cl)cc2Cl)cc1 (stereo not shown) [compound 38] | – | 6,25 μg/ml | – | – | – | – | – | – | – | – | – | – | –
Cl.Cl.Clc1ccc(SCCCNC(Cn2ccnc2)c2ccc(Cl)cc2Cl)cc1 (stereo not shown) [Compound No. 19, 1-(2-(2,4-dichlorophenyl)-2-(3-(4-chlorophenylthio)propylamino)ethyl)-1H-imidazole dihydrochloride] | – | 0,78 μg/ml | – | – | – | – | – | – | – | – | – | – | LD100 ([1]; female): > 500 mg/kg; LD100 ([1]; male): > 1,000 mg/kg; clinical signs [1, 7]: Inactivity, ruffled fur, convulsions; LD100 ([2]; female): > 1,000 mg/kg; LD100 ([2]; male): > 500 mg/kg; clinical signs [2, 7]: Inactivity, convulsions; clinical signs [3]: Inactivity, necrotic tail; mutagenic activity [4]: No mutagenic activity whatever was observed; clinical signs [5]: Inactivity, necrotic tail, convulsions
Clc1ccc(SCCNC(Cn2ccnc2)c2ccc(-c3ccccc3)cc2)cc1 (stereo not shown) [compound 14] | 6.25 (≈ 14.4 µM) | 3,12 μg/ml | 3.12 (≈ 7.19 µM) | 6.25 (≈ 14.4 µM) | 1.56 (≈ 3.59 µM) | 6.25 | 0.78 (≈ 1.8 µM) | 0.78 (≈ 1.8 µM) | 12.5 (≈ 28.8 µM) | 50 (≈ 115 µM) | 0.78 (≈ 1.8 µM) | 12.5 (≈ 28.8 µM) | –
Clc1ccc(SCCCNC(Cn2ccnc2)c2cccs2)cc1 (stereo not shown) [compound 31] | 12.5 (≈ 33.1 µM) | 12,5 μg/ml | 6.25 (≈ 16.5 µM) | 25 (≈ 66.1 µM) | 3.12 (≈ 8.25 µM) | 12.5 | 12.5 (≈ 33.1 µM) | 3.12 (≈ 8.25 µM) | 25 (≈ 66.1 µM) | 2.5 (≈ 6.61 µM) | 3.12 (≈ 8.25 µM) | 12.5 (≈ 33.1 µM) | –
Fc1ccc(SCCCNC(Cn2ccnc2)c2ccc(Cl)cc2Cl)cc1 (stereo not shown) [compound 18] | 12.5 (≈ 29.5 µM) | 12,5 μg/ml | 3.12 (≈ 7.35 µM) | 6.25 (≈ 14.7 µM) | 0.78 (≈ 1.84 µM) | 12.5 | 6.25 (≈ 14.7 µM) | 3.12 (≈ 7.35 µM) | 6.25 (≈ 14.7 µM) | 6.25 (≈ 14.7 µM) | 0.39 (≈ 0.919 µM) | 12.5 (≈ 29.5 µM) | –
Cc1ccc(SCCCNC(Cn2ccnc2)c2ccc(Cl)cc2Cl)cc1 (stereo not shown) [compound 17] | – | 0,78 μg/ml | – | – | – | – | – | – | – | – | – | – | –
CN(CCCSCc1ccc(Cl)cc1)C(Cn1ccnc1)c1ccc(Cl)cc1Cl (stereo not shown) [compound 36, 1-(2-(2,4-Dichlorophenyl)-2-(N-methyl-3-(4-chlorobenzylthio)propylamino)ethyl)-1H-imidazole] | – | 25,0 μg/ml | – | – | – | – | – | – | – | – | – | – | –
Clc1ccc(SCCCNC(Cn2ccnc2)c2cccc3ccccc23)cc1 (stereo not shown) [compound 41] | – | 3,12 μg/ml | – | – | – | – | – | – | – | – | – | – | –
Clc1ccc(COC(Cn2ccnc2)c2ccc(Cl)cc2Cl)c(Cl)c1 (stereo not shown) [A, 1-(2-(2,4-dichlorophenyl)-2-(2,4-dichlorophenylmethoxy)ethyl)-1H-imidazole, reference compound] | – | – | – | – | – | – | – | – | – | – | – | – | MIC (Microsporum gypseum; pH 6, read-out: MIC values, Mi. gyp): 3.12 µg/mL (≈ 7.5 µM); MIC values, Asp. fu. (Aspergillus fumigatus; Aspergillus fumigatus, pH 6.0, 22° C., 14 days): 3,12 μg/ml; MIC (Candida tropicalis; pH 6, read-out: MIC values, C. trop): 12.5 µg/mL (≈ 30 µM); MIC (Candida albicans; pH 6, read-out: MIC values, C. alb): 12.5 µg/mL (≈ 30 µM)
